According to patent US8420651B2, “Substituted 1-alkylcinnolin-4(1H)-one derivatives, preparation thereof and therapeutic application of same” (Sanofi, priority 2009, dated 2013):

Compared with O=c1c(-c2cccc(C(F)(F)F)c2)nn(CCCCC(F)(F)F)c2ccccc12, CCCCCn1nc(-c2cccc(C(F)(F)F)c2)c(=O)c2ccccc21 is lower in melting point: 80 to 81 °C for the first, 53 to 55 °C for the second.

First: CCCCCn1nc(-c2cccc(C(F)(F)F)c2F)c(=O)c2cccc(OC)c21
Second: CCCCCn1nc(-c2cccc(C(F)(F)F)c2Cl)c(=O)c2cccc(OC)c21
The melting point of the first is lower: 82 to 84 °C for the first, 90 to 91 °C for the second.

Compared with COc1cccc2c(=O)c(-c3cccc(Cl)c3Cl)nn(CCCNS(C)(=O)=O)c12, COc1cccc2c(=O)c(-c3cccc(Cl)c3Cl)nn(CCCNS(=O)(=O)N(C)C)c12 is lower in melting point: 66 to 68 °C for the first, 62 to 65 °C for the second.

First: CS(=O)(=O)NCCCn1nc(-c2cccc(Cl)c2Cl)c(=O)c2ccc(C(F)(F)F)cc21
Second: CS(=O)(=O)NCCCn1nc(-c2cccc(C(F)(F)F)c2F)c(=O)c2ccc(C(F)(F)F)cc21 [Compound 25, N-{3-[3-[2-Fluoro-3-(trifluoromethyl)phenyl]-4-oxo-7-trifluoromethyl-4H-cinnolin-1-yl]propyl}methanesulphonamide]
The melting point of the first is lower: 80 to 83 °C for the first, 128 to 130 °C for the second.

Compared with CCCCCn1nc(-c2cccc(C(F)(F)F)c2F)c(=O)c2ccccc21, O=c1c(-c2cccc(C(F)(F)F)c2F)nn(CCCCF)c2ccccc12 is higher in melting point: 78 to 80 °C for the first, 91 to 93 °C for the second.

First: CC[S+]([O-])CCn1nc(-c2cccc(Cl)c2Cl)c(=O)c2cccc(OC)c21 (stereo not drawn)
Second: CCOCCn1nc(-c2cccc(Cl)c2Cl)c(=O)c2cccc(OC)c21
The melting point of the first is lower: 128 to 130 °C for the first, 134 to 135 °C for the second.

Compared with COc1cccc2c(=O)c(-c3cccc(Cl)c3Cl)nn(CCCN(C)S(C)(=O)=O)c12, COc1cccc2c(=O)c(-c3cccc(C(F)(F)F)c3Cl)nn(CCCNS(C)(=O)=O)c12 [Compound 19, N-[3-[3-[2-Chloro-3-(trifluoromethyl)phenyl]-8-methoxy-4-oxocinnolin-1(4H)-yl]propyl]methanesulphonamide] is lower in melting point: 179 to 181 °C for the first, 95 to 98 °C for the second.

CCSCCn1nc(-c2cccc(Cl)c2Cl)c(=O)c2ccc(Cl)cc21 and CC[S+]([O-])CCn1nc(-c2cccc(Cl)c2Cl)c(=O)c2ccc(Cl)cc21 (stereo not drawn) fall in the same range of melting point: 75 to 77 °C for the first, 75 to 77 °C for the second.

First: CCS(=O)(=O)CCn1nc(-c2cccc(Cl)c2Cl)c(=O)c2ccc(Cl)cc21
Second: CS(=O)(=O)NCCCn1nc(-c2cccc(C(F)(F)F)c2F)c(=O)c2ccc(Cl)cc21 [Compound 38, N-(3-{7-Chloro-3-[2-fluoro-3-(trifluoromethyl)phenyl]-4-oxocinnolin-1(4H)-yl}propyl)methanesulphonamide]
The melting point of the first is lower: 76 to 79 °C for the first, 155 to 157 °C for the second.

First: CCCCCn1nc(-c2cccc(OC(F)(F)F)c2)c(=O)c2cccc(OC)c21
Second: CCSCCn1nc(-c2cccc(OC(F)(F)F)c2)c(=O)c2cccc(OC)c21 [Compound 49, 1-[2-(Ethylthio)ethyl]-8-methoxy-3-[3-(trifluoromethoxy)phenyl]cinnolin-4(1H)-one]
The melting point of the first is lower: 50 to 52 °C for the first, 86 to 89 °C for the second.

First: O=c1c(-c2cccc(C(F)(F)F)c2F)nn(CCCCC(F)(F)F)c2ccccc12 [Compound 4, 3-[2-Fluoro-3-(trifluoromethyl)phenyl]-1-(5,5,5-trifluoropentyl)cinnolin-4(1H)-one]
Second: O=c1c(-c2cccc(C(F)(F)F)c2F)nn(CCCC(F)(F)F)c2ccccc12 [Compound 6, 3-[2-Fluoro-3-(trifluoromethyl)phenyl]-1-(4,4,4-trifluorobutyl)cinnolin-4(1H)-one]
The melting point of the first is higher: 118 to 120 °C for the first, 96 to 99 °C for the second.

First: CSCCCn1nc(-c2cccc(C(F)(F)F)c2F)c(=O)c2ccccc21 [Compound 7, 3-(2-Fluoro-3-(trifluoromethyl)phenyl)-1-[3-(methylthio)propyl]cinnolin-4(1H)-one]
Second: CS(=O)(=O)NCCCn1nc(-c2cccc(C(F)(F)F)c2F)c(=O)c2ccccc21 [Compound 27, N-{3-[3-[2-Fluoro-3-(trifluoromethyl)phenyl]-4-oxo-4H-cinnolin-1-yl]-propyl}methanesulphonamide]
The melting point of the first is lower: 80 to 83 °C for the first, 149 to 152 °C for the second.

First: COc1ccc(F)cc1-c1nn(CCCC(F)(F)F)c2ccccc2c1=O [Compound 16, 3-(5-Fluoro-2-methoxyphenyl)-1-(4,4,4-trifluorobutyl)cinnolin-4(1H)-one]
Second: COc1cccc2c(=O)c(-c3cccc(C(F)(F)F)c3F)nn(CCCS(C)(=O)=O)c12 [Compound 24, 3-[2-Fluoro-3-(trifluoromethyl)phenyl]-1-(3-(methanesulphonyl)propyl)-8-methoxy-1H-cinnolin-4-one]
The melting point of the first is lower: 118 to 121 °C for the first, 138 to 139 °C for the second.

First: O=c1c(-c2cccc(C(F)(F)F)c2Cl)nn(CCCCC(F)(F)F)c2cc(Cl)ccc12 [Compound 17, 7 Chloro-3-[2-chloro-3-(trifluoromethyl)phenyl]-1-(5,5,5-trifluoropentyl)-cinnolin-4(1H)-one]
Second: CCSCCn1nc(-c2cccc(C(F)(F)F)c2F)c(=O)c2ccc(Cl)cc21 [Compound 41, 7-Chloro-1-[2-(ethylthio)ethyl]-3-[2-fluoro-3-(trifluoromethyl)phenyl]cinnolin-4(1H)-one]
The melting point of the first is higher: 137 to 138 °C for the first, 117 to 119 °C for the second.

First: COc1cccc2c(=O)c(-c3cccc(C(F)(F)F)c3F)nn(CCCNS(C)(=O)=O)c12 [Compound 18, N-(3-[3-[2-Fluoro-3-(trifluoromethyl)phenyl]-8-methoxy-4-oxocinnolin-1(4H)-yl]propyl)methanesulphonamide]
Second: COc1cccc2c(=O)c(-c3cccc(C(F)(F)F)c3F)nn(CCNS(C)(=O)=O)c12 [Compound 55, N-(2-{3-[2-Fluoro-3-(trifluoromethyl)phenyl]-8-methoxy-4-oxocinnolin-1(4H)-yl}ethyl)methanesulphonamide]
The melting point of the first is lower: 62 to 64 °C for the first, 145 to 146 °C for the second.

First: COc1cccc2c(=O)c(-c3cccc(F)c3C(F)(F)F)nn(CCCNS(C)(=O)=O)c12 [Compound 20, N-[3-[3-[3-Fluoro-2-(trifluoromethyl)phenyl]-8-methoxy-4-oxocinnolin-1(4H)-yl]propyl]methanesulphonamide]
Second: COc1cccc2c(=O)c(-c3cccc(OC(F)(F)F)c3)nn(CCCNS(C)(=O)=O)c12 [Compound 35, N-(3-{8-Methoxy-4-oxo-3-[3-(trifluoromethoxy)phenyl]cinnolin-1(4H)-yl}propyl)methanesulphonamide]
The melting point of the first is lower: 66 to 68 °C for the first, 98 to 101 °C for the second.

First: CCSCCn1nc(-c2cccc(C(F)(F)F)c2F)c(=O)c2cccc(OC)c21 [Compound 29, 1-[2-(Ethylthio)ethyl]-3-[2-fluoro-3-(trifluoromethyl)phenyl]-8-methoxycinnolin-4(1H)-one]
Second: CC[S+]([O-])CCn1nc(-c2cccc(C(F)(F)F)c2F)c(=O)c2cccc(OC)c21 (stereo not drawn) [Compound 30, 1-[2-(Ethylsulphinyl)ethyl]-3-[2-fluoro-3-(trifluoromethyl)phenyl]-8-methoxycinnolin-4(1H)-one]
The melting point of the first is lower: 73 to 75 °C for the first, 99 to 101 °C for the second.

Compared with CCS(=O)(=O)CCn1nc(-c2cccc(C(F)(F)F)c2F)c(=O)c2cccc(OC)c21 [Compound 31, 1-[2-(Ethylsulphonyl)ethyl]-3-[2-fluoro-3-(trifluoromethyl)phenyl]-8-methoxycinnolin-4(1H)-one], COc1cccc2c(=O)c(-c3cccc(C(F)(F)F)c3F)nn(CCCNS(=O)(=O)C(F)(F)F)c12 [Compound 36, 1,1,1-Trifluoro-N-(3-{3-[2-fluoro-3-(trifluoromethyl)phenyl]-8-methoxy-4-oxocinnolin-1(4H)-yl}propyl)methanesulphonamide] is lower in melting point: 138 to 139 °C for the first, 127 to 130 °C for the second.

Compared with COc1cccc2c(=O)c(-c3cccc(C(F)(F)F)c3F)nn(CCCNC(=O)C(F)(F)F)c12 [Compound 37, 2,2,2-Trifluoro-N-(3-{3-[2-fluoro-3-(trifluoromethyl)phenyl]-8-methoxy-4-oxocinnolin-1(4H)-yl}propyl)acetamide], CCS(=O)(=O)CCn1nc(-c2cccc(OC(F)(F)F)c2)c(=O)c2cccc(OC)c21 [Compound 50, 1-[2-(Ethylsulphonyl)ethyl]-8-methoxy-3-[3-(trifluoromethoxy)phenyl]cinnolin-4(1H)-one] is higher in melting point: 51 to 53 °C for the first, 130 to 132 °C for the second.

Work on CCSCCn1nc(-c2cccc(OC(F)(F)F)c2)c(=O)c2ccc(Cl)cc21 [Compound 46, 7-Chloro-1-[2-(ethylthio)ethyl]-3-[3-(trifluoromethoxy)phenyl]cinnolin-4(1H)-one] yielded a melting point of 66 to 68 °C.
